{"source": "paper PMC5643462", "about": "“Encrypted Antimicrobial Peptides from Plant Proteins” (Scientific Reports, 2017)", "key": {"Fusarium solani": {"system": "Fusarium solani", "details": "RPMI 1640 pH 7.0; 28 °C, 48 h; start 2.5 x 10 3; 256-0.5 µM; mean ± SD of 3 biological repetitions (SD 0 not displayed); N/A = no antimicrobial activity observed", "method": "(§1) The susceptibility test of microorganisms was performed to evaluate the inhibitory activity of the IAPs. Protocols M7-A10[50], M27-A3[51] and M38-A2[52] from Clinical & Laboratory Standards Institute (CLSI) were used for bacteria, yeasts and filamentous fungi tests, respectively. Briefly, different concentration of IAPs (256-0.5 µM) were tested against 16 microorganisms, in a final volume of 100 µL. Media conditions, final cell concentration and incubation conditions are presented in Supplementary Material 07, Table S5. Three biological repetitions, with 2 technical replicates each, were performed for each test, on polystyrene flat-bottom 96 wells microplates. The minimum inhibitory concentration (MIC) was defined as the concentration that no cells/hyphae were detected when visualized by optical microscopy.\n(§2) Supplementary Material 07, Table S5\n(§3) Table S5. Microorganisms and growth conditions."}, "Rhizoctonia solani": {"system": "Rhizoctonia solani", "details": "RPMI 1640 pH 7.0; 28 °C, 48 h; start 2.5 x 10 3; 256-0.5 µM; mean ± SD of 3 biological repetitions (SD 0 not displayed); N/A = no antimicrobial activity observed", "method": "as §1, §2, §3"}, "[1]": {"system": "Fusarium oxysporum f.sp. vasinfectum", "details": "RPMI 1640 pH 7.0; 28 °C, 72 h; start 2.5 x 10 3; 256-0.5 µM; mean ± SD of 3 biological repetitions (SD 0 not displayed); N/A = no antimicrobial activity observed", "method": "as §1, §2, §3"}, "human red blood cells": {"system": "human red blood cells", "experiment": "Cytotoxicity: hemolysis of human red blood cells", "type": "cell-based", "details": "SC50 = IAP concentration that at least 50% of red blood cells remain intact; 128 µM–0.5 µM tested; PBS, 30 minutes, 37 °C; absorbance 540 nm", "summary_of_the_method": "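Human red blood cells (2.5 × 10^5 cells.mL^−1 final) exposed to 128 µM–0.5 µM peptide in PBS for 30 min at 37 °C with shaking. Hemoglobin release read at 540 nm in supernatant; lysis relative to 0.1% Triton X-100 (100%) after PBS subtraction.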"}, "Trichoderma asperellum": {"system": "Trichoderma asperellum", "experiment": "microbe, parasite or virus in culture", "details": "RPMI 1640 pH 7.0; 28 °C, 48 h; start 2.5 x 10 3; 256-0.5 µM; mean ± SD of 3 biological repetitions (SD 0 not displayed); N/A = no antimicrobial activity observed", "method": "as §1, §2, §3"}, "Candida albicans": {"system": "Candida albicans", "experiment": "microbe, parasite or virus in culture", "details": "ATCC 90028; RPMI 1640 pH 7.0; 37 °C, 48 h; start 2.5 x 10^3 cells; 256-0.5 µM; mean ± SD of 3 biological repetitions (SD 0 not displayed); no cells seen by optical microscopy; N/A = no antimicrobial activity observed", "method": "as §1, §2, §3"}, "Bacillus cereus": {"system": "Bacillus cereus", "experiment": "microbe, parasite or virus in culture", "details": "ATCC 14579; Mueller-Hinton; 37 °C, 24 h; start 5.0 x 10^5 cells; 256-0.5 µM; mean ± SD of 3 biological repetitions (SD 0 not displayed); N/A = no antimicrobial activity observed", "method": "as §1, §2, §3"}, "Ramularia areola": {"system": "Ramularia areola", "experiment": "microbe, parasite or virus in culture", "details": "RPMI 1640 pH 7.0; 25 °C, 120 h; start 2.5 x 10 3; 256-0.5 µM; mean ± SD of 3 biological repetitions (SD 0 not displayed); N/A = no antimicrobial activity observed", "method": "as §1, §2, §3"}, "Escherichia coli": {"system": "Escherichia coli", "experiment": "microbe, parasite or virus in culture", "details": "ATCC 25922; Mueller-Hinton; 37 °C, 24 h; start 5.0 x 10^5 cells; 256-0.5 µM; mean ± SD of 3 biological repetitions (SD 0 not displayed); N/A = no antimicrobial activity observed", "method": "as §1, §2, §3"}, "Erwinia carotovora": {"system": "Erwinia carotovora", "experiment": "microbe, parasite or virus in culture", "details": "Mueller-Hinton; 28 °C, 24 h; start 5.0 x 10^5 cells; 256-0.5 µM; mean ± SD of 3 biological repetitions (SD 0 not displayed); N/A = no antimicrobial activity observed", "method": "as §1, §2, §3"}, "[2]": {"system": "Pseudomonas syringae pv. tabaci", "experiment": "microbe, parasite or virus in culture", "details": "Mueller-Hinton; 28 °C, 24 h; start 5.0 x 10^5 cells; 256-0.5 µM; mean ± SD of 3 biological repetitions (SD 0 not displayed); N/A = no antimicrobial activity observed", "method": "as §1, §2, §3"}, "Cryptococcus neoformans": {"system": "Cryptococcus neoformans", "experiment": "microbe, parasite or virus in culture", "details": "ATCC 28957; RPMI 1640 pH 7.0; 37 °C, 72 h; start 2.5 x 10^3 cells; 256-0.5 µM; mean ± SD of 3 biological repetitions (SD 0 not displayed); N/A = no antimicrobial activity observed", "method": "as §1, §2, §3"}, "Staphylococcus aureus": {"system": "Staphylococcus aureus", "experiment": "microbe, parasite or virus in culture", "details": "ATCC 25923; Mueller-Hinton; 37 °C, 24 h; start 5.0 x 10^5 cells; 256-0.5 µM; mean ± SD of 3 biological repetitions (SD 0 not displayed); N/A = no antimicrobial activity observed", "method": "as §1, §2, §3"}, "Xanthomonas campestris": {"system": "Xanthomonas campestris", "experiment": "microbe, parasite or virus in culture", "details": "pv. citri; Mueller-Hinton; 28 °C, 24 h; start 5.0 x 10^5 cells; 256-0.5 µM; mean ± SD of 3 biological repetitions (SD 0 not displayed); N/A = no antimicrobial activity observed", "method": "as §1, §2, §3"}, "Bacillus subtilis": {"system": "Bacillus subtilis", "experiment": "microbe, parasite or virus in culture", "details": "ATCC 23857; Mueller-Hinton; 37 °C, 24 h; start 5.0 x 10^5 cells; 256-0.5 µM; mean ± SD of 3 biological repetitions (SD 0 not displayed); N/A = no antimicrobial activity observed", "method": "as §1, §2, §3"}, "Fusarium oxysporum": {"system": "Fusarium oxysporum", "experiment": "microbe, parasite or virus in culture", "details": "RPMI 1640 pH 7.0; 28 °C, 48 h; start 2.5 x 10 3; 256-0.5 µM; mean ± SD of 3 biological repetitions (SD 0 not displayed); N/A = no antimicrobial activity observed", "method": "as §1, §2, §3"}}, "note": "No end group written: not given here.", "data": [{"substance": "FFGHIWHGARTLFRDVFA-NH2 [Cs02]", "values": [{"measurement": "Minimum inhibitory concentration, Fusarium solani", "setting": "Fusarium solani", "value": 8.0, "unit": "µM"}, {"measurement": "Minimum inhibitory concentration, Rhizoctonia solani", "setting": "Rhizoctonia solani", "value": 32.0, "unit": "µM"}, {"measurement": "Minimum inhibitory concentration, Fusarium oxysporum f.sp. vasinfectum", "setting": "[1]", "value": "13.33 ± 4.61", "unit": "µM"}, {"measurement": "Hemolytic activity of human red blood cells (%) SC50", "setting": "human red blood cells", "value": ">128", "unit": "µM"}, {"measurement": "Minimum inhibitory concentration, Trichoderma asperellum", "setting": "Trichoderma asperellum", "value": 8.0, "unit": "µM"}, {"measurement": "Minimum inhibitory concentration, Candida albicans", "setting": "Candida albicans", "value": 32.0, "unit": "µM"}, {"measurement": "Minimum inhibitory concentration, Bacillus cereus", "setting": "Bacillus cereus", "value": 64.0, "unit": "µM"}, {"measurement": "Minimum inhibitory concentration, Ramularia areola", "setting": "Ramularia areola", "value": 16.0, "unit": "µM"}, {"measurement": "Minimum inhibitory concentration, Escherichia coli", "setting": "Escherichia coli", "value": 8.0, "unit": "µM"}, {"measurement": "Minimum inhibitory concentration, Erwinia carotovora", "setting": "Erwinia carotovora", "value": 32.0, "unit": "µM"}, {"measurement": "Minimum inhibitory concentration, Pseudomonas syringae pv. tabaci", "setting": "[2]", "value": 4.0, "unit": "µM"}, {"measurement": "Minimum inhibitory concentration, Cryptococcus neoformans", "setting": "Cryptococcus neoformans", "value": 32.0, "unit": "µM"}, {"measurement": "Minimum inhibitory concentration, Staphylococcus aureus", "setting": "Staphylococcus aureus", "value": 8.0, "unit": "µM"}, {"measurement": "Minimum inhibitory concentration, Xanthomonas campestris", "setting": "Xanthomonas campestris", "value": 32.0, "unit": "µM"}, {"measurement": "Minimum inhibitory concentration, Bacillus subtilis", "setting": "Bacillus subtilis", "value": "3.33 ± 1.15", "unit": "µM"}, {"measurement": "Minimum inhibitory concentration, Fusarium oxysporum", "setting": "Fusarium oxysporum", "value": 16.0, "unit": "µM"}]}]}
